These results are taken from ChEMBL document CHEMBL5506033, “Brain-Penetrant Macrocycles: Design Considerations, Future Prospects, and Call for Papers” (J Med Chem, 2024).

A short description of data set [1]: Half life in human. The format is ADME.
A short description of data set [2]: Oral bioavailability in human. The format is ADME, organism-based. The settings on record: in vivo.

As for `C[C@H]1Oc2cc(cnc2N)-c2c(nn(C)c2C#N)CN(C)C(=O)c2ccc(F)cc21` [LORLATINIB], the half-life in data set [1] is around 25 h. Further, the bioavailability in data set [2] is 81%.

Usually half-life stands for the time needed for the level to fall by half in the phase considered. As usually defined, the bioavailability is the share of a dose that reaches the circulation, judged against a reference dose that is usually intravenous.
